Assay results published in US20230158025A1 (UNIVERSITY OF UTAH RESEARCH FOUNDATION, priority 2020, published 2023).
pIC50: −log10 of the molar value. Like-named read-outs stand apart in the source and are kept apart here.

Columns and labels:
[1] = target: recombinant human GALK1 (Homo sapiens, UniProt P51570); assay: hGALK1 biochemical activity assay (Kinase-Glo Plus, ATP depletion)
Method in brief: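 Recombinant human or mouse GALK1 (5 nM, with 100 μM galactose, in the added enzyme solution) was run with ATP (35 μM in the substrate solution) in HEPES pH 8.0 buffer. Compounds were tested at 11 1/3-step concentrations from 57.4 μM to 0.97 nM. After 1 h at room temperature, remaining ATP was read by Kinase-Glo Plus luminescence.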

[2] = target: recombinant mouse GALK1 (Mus musculus, UniProt Q9R0N0); assay: mGALK1 biochemical activity assay (Kinase-Glo Plus, ATP depletion)
Sequence of recombinant mouse GALK1 (Q9R0N0 whole entry): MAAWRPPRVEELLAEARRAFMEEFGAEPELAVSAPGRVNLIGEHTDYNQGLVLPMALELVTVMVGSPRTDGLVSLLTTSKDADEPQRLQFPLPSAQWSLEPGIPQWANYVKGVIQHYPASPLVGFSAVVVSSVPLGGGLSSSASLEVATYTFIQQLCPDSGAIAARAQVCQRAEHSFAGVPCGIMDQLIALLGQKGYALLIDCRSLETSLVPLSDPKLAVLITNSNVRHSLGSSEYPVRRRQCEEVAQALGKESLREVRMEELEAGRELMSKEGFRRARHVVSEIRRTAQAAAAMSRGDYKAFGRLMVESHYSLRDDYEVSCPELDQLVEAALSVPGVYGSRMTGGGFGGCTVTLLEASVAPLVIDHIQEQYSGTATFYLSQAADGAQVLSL
Method in brief: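 Recombinant GALK1 (5 nM) with 100 μM galactose; GALK1 turnover read as ATP depletion by Kinase-Glo Plus luminescence. Reaction ran 1 h at room temperature before detection reagent was added.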

[3] = PAMPA permeability; details: PAMPA
[4] = aqueous kinetic solubility; details: aqueous kinetic solubility
[5] = rat microsomal stability (RLM); details: microsomal stability half-life
[6] = Tables 2-15, 35 μM ATP, 100 μM galactose, 1 h, bracketed figure after some values (e.g. −1.2) is undefined and not reported, read-out: hGALK IC50
[7] = recombinant human GALK1, Kinase-Glo Plus ATP depletion, read-out: hGALK
[8] = Tables 2-15, 35 μM ATP, 100 μM galactose, 1 h, bracketed figure after some values is undefined and not reported, read-out: mGALK IC50
[9] = recombinant mouse GALK1, Kinase-Glo Plus ATP depletion, read-out: mGALK
[10] = recombinant human GALK1, Kinase-Glo Plus ATP depletion
[11] = recombinant mouse GALK1, Kinase-Glo Plus ATP depletion

Sequence of recombinant human GALK1 (P51570 whole entry): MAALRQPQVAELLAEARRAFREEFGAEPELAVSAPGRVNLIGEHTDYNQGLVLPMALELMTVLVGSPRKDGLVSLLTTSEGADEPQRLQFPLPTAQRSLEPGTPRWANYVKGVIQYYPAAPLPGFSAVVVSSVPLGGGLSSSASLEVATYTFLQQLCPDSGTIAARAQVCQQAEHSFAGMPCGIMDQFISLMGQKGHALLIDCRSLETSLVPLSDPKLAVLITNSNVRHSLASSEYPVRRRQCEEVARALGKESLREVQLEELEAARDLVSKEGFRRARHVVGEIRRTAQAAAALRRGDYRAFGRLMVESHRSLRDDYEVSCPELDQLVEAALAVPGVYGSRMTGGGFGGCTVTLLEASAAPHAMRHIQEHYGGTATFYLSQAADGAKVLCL

Compound	pIC50 [1, 6]	pIC50 [1, 7]	pIC50 [2, 8]	pIC50 [2, 9]	Perm. (1 × 10^−6 cm/sec) [3]	Sol. [4]	Metab. Stabil. (m) [5]	hGALK (μM) [1, 10]	mGALK (μM) [2, 11]	hGALK IC50 ([1]; Tables 2-15, 35 μM ATP, 100 μM galactose, 1 h, bracketed figure after some values (e.g. −1.2) is undefined and not reported)	mGALK IC50 ([2]; Tables 2-15, 35 μM ATP, 100 μM galactose, 1 h, bracketed figure after some values is undefined and not reported)
CC1=C(C(=O)Nc2cccc(C(=O)O)n2)C(c2ccccc2Cl)N=C(Nc2nc3ccccc3o2)N1 (stereo not drawn) [Compound 195, 6-(2-(benzo[d]oxazol-2-ylamino)-4-(2-chlorophenyl)-6-methyl-1,4-dihydropyrimidine-5-carboxamido)picolinic acid]	5.36	5.36	5.16	5.16	<1 1 × 10^−6 cm/sec	60.0 µg/mL	>30 m				
COC(=O)c1ccnc(NC(=O)C2=C(C)NC(Nc3nc4ccccc4o3)=NC2c2ccccc2Cl)c1 (stereo not drawn) [Compound 196, methyl 2-(2-(benzo[d]oxazol-2-ylamino)-4-(2-chlorophenyl)-6-methyl-1,4-dihydropyrimidine-5-carboxamido)isonicotinate]	5.56	5.56	5.26	5.26	27.7 1 × 10^−6 cm/sec	<1 µg/mL	18.44 m				
COC(=O)c1cccc(NC(=O)C2=C(C)NC(Nc3nc4ccccc4o3)=NC2c2ccccc2Cl)n1 (stereo not drawn) [Compound 197]	5.01	5.01	4.91	4.91	18.9 1 × 10^−6 cm/sec	<1 µg/mL	>30 m				
CC1=C(C(=O)Nc2nc(CO)cs2)C(c2ccccc2Cl)N=C(Nc2nc3ccccc3o2)N1 (stereo not drawn) [Compound 198, 2-(benzo[d]oxazol-2-ylamino)-4-(2-chlorophenyl)-N-(4-(hydroxymethyl)thiazol-2-yl)-6-methyl-1,4-dihydropyrimidine-5-carboxamide]	4.76	4.76	4.71	4.71	59.9 1 × 10^−6 cm/sec	<1 µg/mL	>30 m				
CC1=C(C(=O)Nc2ccnc(C(=O)O)c2)C(c2ccccc2Cl)N=C(Nc2nc3ccccc3o2)N1 (stereo not drawn) [Compound 203, 4-(2-(benzo[d]oxazol-2-ylamino)-4-(2-chlorophenyl)-6-methyl-1,4-dihydropyrimidine-5-carboxamido)picolinic acid]		5.46	5.51	5.51	<1 1 × 10^−6 cm/sec	>74 µg/mL	>30 m				
COC(=O)c1cc(NC(=O)C2=C(C)NC(Nc3nc4ccccc4o3)=NC2c2ccccc2Cl)ccn1 (stereo not drawn) [Compound 204, methyl 4-(2-(benzo[d]oxazol-2-ylamino)-4-(2-chlorophenyl)-6-methyl-1,4-dihydropyrimidine-5-carboxamido)picolinate]	5.11	5.11	4.96	4.96	49.2 1 × 10^−6 cm/sec	<1 µg/mL	>30 m				
COC(=O)c1ccnc(NC(=O)C2=C(C)NC(Nc3nc4ccccc4o3)=N[C@H]2c2ccccc2Cl)c1 [Compound 206, (R)-methyl 2-(2-(benzo[d]oxazol-2-ylamino)-4-(2-chlorophenyl)-6-methyl-1,4-dihydropyrimidine-5-carboxamido)isonicotinate]		5.46		5.16	306.7 1 × 10^−6 cm/sec	<1 µg/mL	19.99 m				
COC(=O)c1ccnc(NC(=O)C2=C(C)NC(Nc3nc4ccccc4o3)=N[C@@H]2c2ccccc2Cl)c1 [Compound 207, (S)-methyl 2-(2-(benzo[d]oxazol-2-ylamino)-4-(2-chlorophenyl)-6-methyl-1,4-dihydropyrimidine-5-carboxamido)isonicotinate]					250.4 1 × 10^−6 cm/sec	<1 µg/mL	25.55 m	in- active	in- active		
CC1=C(C(=O)Nc2cc(C(=O)O)ccn2)[C@H](c2ccccc2Cl)N=C(Nc2nc3ccccc3o2)N1 [Compound 208, (R)-2-(2-(benzo[d]oxazol-2-ylamino)-4-(2-chlorophenyl)-6-methyl-1,4-dihydropyrimidine-5-carboxamido)isonicotinic acid]	6.27	6.27	5.46	5.46	<1 1 × 10^−6 cm/sec	>74 µg/mL	>30 m				
CC1=C(C(=O)Nc2cc(C(=O)O)ccn2)[C@@H](c2ccccc2Cl)N=C(Nc2nc3ccccc3o2)N1 [Compound 209, (S)-2-(2-(benzo[d]oxazol-2-ylamino)-4-(2-chlorophenyl)-6-methyl-1,4-dihydropyrimidine-5-carboxamido)isonicotinic acid]	4.91	4.91	4.71	4.71	<1 1 × 10^−6 cm/sec	>74 µg/mL	>30 m				
CC1=C(C(=O)Nc2cc(C(=O)O)ccc2F)C(c2ccccc2Cl)N=C(Nc2nc3ccccc3o2)N1 (stereo not drawn) [Compound 210, 3-(2-(benzo[d]oxazol-2-ylamino)-4-(2-chlorophenyl)-6-methyl-1,4-dihydropyrimidine-5-carboxamido)-4-fluorobenzoic acid]		5.51		4.96	3.3 1 × 10^−6 cm/sec	25.4 µg/mL	>30 m				
CC1=C(C(=O)Nc2cc(CO)ccn2)C(c2ccccc2Cl)N=C(Nc2nc3ccccc3o2)N1 (stereo not drawn) [Compound 211, 2-(benzo[d]oxazol-2-ylamino)-4-(2-chlorophenyl)-N-(4-(hydroxymethyl)pyridin-2-yl)-6-methyl-1,4-dihydropyrimidine-5-carboxamide]	5.51	5.51	5.01	5.01	109.6 1 × 10^−6 cm/sec	<1 µg/mL	>30 m				
CC1=C(C(=O)Nc2cc(C(N)=O)ccn2)C(c2ccccc2Cl)N=C(Nc2nc3ccccc3o2)N1 (stereo not drawn) [Compound 212, 2-(benzo[d]oxazol-2-ylamino)-N-(4-carbamoylpyridin-2-yl)-4-(2-chlorophenyl)-6-methyl-1,4-dihydropyrimidine-5-carboxamide]	5.61	5.61	5.11	5.11	156.0 1 × 10^−6 cm/sec	<1 µg/mL	>30 m				
CNC(=O)c1ccnc(NC(=O)C2=C(C)NC(Nc3nc4ccccc4o3)=NC2c2ccccc2Cl)c1 (stereo not drawn) [Compound 213, 2-(benzo[d]oxazol-2-ylamino)-4-(2-chlorophenyl)-6-methyl-N-(4-(methylcarbamoyl)pyridin-2-yl)-1,4-dihydropyrimidine-5-carboxamide]	5.51	5.51	4.96	4.96	421.9 1 × 10^−6 cm/sec	<1 µg/mL	>30 m				
CC1=C(C(=O)Nc2ccccn2)C(c2ccccc2Cl)N=C(Nc2nc3ccccc3o2)N1 (stereo not drawn) [Compound 214, 2-(benzo[d]oxazol-2-ylamino)-4-(2-chlorophenyl)-6-methyl-N-(pyridin-2-yl)-1,4-dihydropyrimidine-5-carboxamide]		5.36	4.96	4.96	173.5 1 × 10^−6 cm/sec	<1 µg/mL	>30 m				
COc1ccccc1CNC(=O)C1=C(C)NC(Nc2nc3ccccc3o2)=NC1c1ccccc1Cl (stereo not drawn) [Compound 215, 2-(benzo[d]oxazol-2-ylamino)-4-(2-chlorophenyl)-N-(2-methoxybenzyl)-6-methyl-1,4-dihydropyrimidine-5-carboxamide]	5.11	5.11	4.91	4.91	99.3 1 × 10^−6 cm/sec	<1 µg/mL	1.4 m				
CC1=C(C(=O)NCc2ccc(Cl)cc2)C(c2ccccc2Cl)N=C(Nc2nc3ccccc3o2)N1 (stereo not drawn) [Compound 218, 2-(benzo[d]oxazol-2-ylamino)-4-(2-chlorophenyl)-N-(4-chlorobenzyl)-6-methyl-1,4-dihydropyrimidine-5-carboxamide]					25.8 1 × 10^−6 cm/sec	<1 µg/mL	11.91 m	in- active	in- active	inactive	inactive
CC1=C(C(=O)NCc2ccccn2)C(c2ccccc2Cl)N=C(Nc2nc3ccccc3o2)N1 (stereo not drawn) [Compound 220, 2-(benzo[d]oxazol-2-ylamino)-4-(2-chlorophenyl)-6-methyl-N-(pyridin-2-ylmethyl)-1,4-dihydropyrimidine-5-carboxamide]	5.06	5.06		4.71	1424.0 1 × 10^−6 cm/sec	1.8 µg/mL	6.557 m				
